{"source": "patent US11485744B2", "about": "“High penetration prodrug compositions of antimicrobials and antimicrobial-related compounds” (priority 2009, dated 2022)", "key": {"[1]": {"test_system": "K. pneumonlae", "experiment": "MIC against K. pneumonlae", "type": "cell-based", "settings": "Table 6b; combinations antibiotic/inhibitor"}, "[2]": {"experiment": "In vitro penetration across isolated human skin in modified Franz cells", "settings": "Table 1a; isolated human skin, Franz cells, 10% in 0.2 M phosphate buffer pH 7.4, n=5"}, "[3]": {"test_system": "E. cloacae", "experiment": "MIC against E. cloacae", "type": "cell-based", "settings": "Enterobacter cloacae; Table 6b; combinations antibiotic/inhibitor"}, "[4]": {"test_system": "B. fragilis", "experiment": "MIC against B. fragilis", "type": "cell-based", "settings": "Bacteroides fragilis; Table 6b; combinations antibiotic/inhibitor"}}}
{"molecule": "CC1(C)S[C@@H]2[C@H](NC(=O)[C@H](N)c3ccccc3)C(=O)N2[C@H]1C(=O)O", "note": "[Ampicillin]", "values": [{"measurement": "MIC", "setting": "[1]", "result": 0.3, "unit": "µg/mL"}, {"measurement": "In vitro Penetration Rate (apparent flux), Parent compounds", "setting": "[2]", "result": "<0.015", "unit": "mg/cm^2/h"}, {"measurement": "MIC", "setting": "[3]", "result": 5, "unit": "µg/mL"}, {"measurement": "MIC", "setting": "[4]", "result": 68, "unit": "µg/mL"}]}
